Test results: patent publication US20210395650A1, “COMPOUNDS STABILIZING HYDROLASES IN LIQUIDS” (BASF SE, priority 2018, published 2021)
Structures can show the parent of a compound that is named as a salt.

Biological target: T1, Savinase® 16.0L (Lederbergia lenta, UniProt P29600)
T1 construct: purchased Sigma-Aldrich
T1 sequence (P29600 1-269): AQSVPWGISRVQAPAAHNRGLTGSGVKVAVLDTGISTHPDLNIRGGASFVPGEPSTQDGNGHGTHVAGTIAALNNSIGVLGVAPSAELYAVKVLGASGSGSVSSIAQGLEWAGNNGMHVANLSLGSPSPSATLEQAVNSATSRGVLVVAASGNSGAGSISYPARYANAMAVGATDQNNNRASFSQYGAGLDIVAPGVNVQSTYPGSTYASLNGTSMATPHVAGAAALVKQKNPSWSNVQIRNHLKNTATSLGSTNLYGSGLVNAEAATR
Assay: Protease storage stability in liquid formulations at 37° C. (Suc-AAPF-pNA assay)
Assay type: biochemical
Conditions: 0.7 wt% Savinase 16.0 L
Description: The storage stability of protease was assessed at 37° C.
Base test formulations were manufactured by making base formulations I to V by mixing the components according to Table 1.
Protease used: Savinase® 16.0L (CAS-No. 9014-01-1, EC-No. 232-752-2) was purchased from Sigma-Aldrich.
The respective component (a) or comparative compound was added, if applicable, to the respective base formulation in amounts as indicated in Table 1.
The amount of protease as provided in Table 1 refers to active protein.
Water was added to accomplish the balance to 100.
Savinase activity at certain points in time as indicated in Table 2 was be determined by employing Succinyl-Ala-Ala-Pro-Phe-p-nitroanilide (Suc-AAPF-pNA, short AAPF) as substrate. pNA is cleaved from the substrate molecule by proteolytic cleavage, resulting in release of yellow color of free pNA which was determined by measuring OD405. Measurements were done at 20° C.
The proteolytic activity values provided in Table 3 were calculated referring to the 100% value determined in the reference formulation at the time 0.
The nomenclature of formulations is as follows: the Roman number before the full stop characterizes the base formulation, the Arabian number the type of compound (A. # compound according to invention (component (a)); (B. #) comparative compound).

[1] = base formulation I, 2.5 wt% compound, 3 d
[2] = base formulation I, 2.5 wt% compound, 7 d
[3] = base formulation I, 2.5 wt% compound, 14 d
[4] = base formulation I, 2.5 wt% compound, 21 d
[5] = base formulation I, 2.5 wt% compound, 28 d
[6] = base formulation I, 2.5 wt% compound, 35 d
[7] = base formulation III, 2.0 wt% compound, 3 d
[8] = base formulation III, 2.0 wt% compound, 7 d
[9] = base formulation III, 2.0 wt% compound, 14 d
[10] = base formulation III, 2.0 wt% compound, 21 d
[11] = base formulation III, 2.0 wt% compound, 28 d
[12] = base formulation III, 2.0 wt% compound, 35 d
[13] = base formulation II, 2.5 wt% compound, 3 d
[14] = base formulation II, 2.5 wt% compound, 7 d
[15] = base formulation II, 2.5 wt% compound, 14 d
[16] = base formulation II, 2.5 wt% compound, 21 d
[17] = base formulation II, 2.5 wt% compound, 28 d
[18] = base formulation II, 2.5 wt% compound, 35 d
[19] = base formulation II, 2.5 wt% compound, T0
[20] = base formulation V, 2.0 wt% compound, 3 d
[21] = base formulation V, 2.0 wt% compound, 7 d
[22] = base formulation V, 2.0 wt% compound, 14 d
[23] = base formulation V, 2.0 wt% compound, 21 d
[24] = base formulation V, 2.0 wt% compound, 28 d
[25] = base formulation V, 2.0 wt% compound, 35 d
[26] = base formulation V, 2.0 wt% compound, T0
[27] = base formulation IV, 2.0 wt% compound, 3 d
[28] = base formulation IV, 2.0 wt% compound, 7 d
[29] = base formulation IV, 2.0 wt% compound, 14 d
[30] = base formulation IV, 2.0 wt% compound, 21 d
[31] = base formulation IV, 2.0 wt% compound, 28 d
[32] = base formulation IV, 2.0 wt% compound, 35 d

Compound	protease activity in the course of time of storage at 37° C. [1] [%]	protease activity in the course of time of storage at 37° C. [2] [%]	protease activity in the course of time of storage at 37° C. [3] [%]	protease activity in the course of time of storage at 37° C. [4] [%]	protease activity in the course of time of storage at 37° C. [5] [%]	protease activity in the course of time of storage at 37° C. [6] [%]	protease activity in the course of time of storage at 37° C. [7] [%]	protease activity in the course of time of storage at 37° C. [8] [%]	protease activity in the course of time of storage at 37° C. [9] [%]	protease activity in the course of time of storage at 37° C. [10] [%]	protease activity in the course of time of storage at 37° C. [11] [%]	protease activity in the course of time of storage at 37° C. [12] [%]	protease activity in the course of time of storage at 37° C. [13] [%]	protease activity in the course of time of storage at 37° C. [14] [%]	protease activity in the course of time of storage at 37° C. [15] [%]	protease activity in the course of time of storage at 37° C. [16] [%]	protease activity in the course of time of storage at 37° C. [17] [%]	protease activity in the course of time of storage at 37° C. [18] [%]	protease activity in the course of time of storage at 37° C. [19] [%]	protease activity in the course of time of storage at 37° C. [20] [%]	further results
CCOC(=O)C(=O)OCC [B.3, diethyloxalate, reference compound]	90	86	70	65	62	58	92	85	74	60	55	51	–	–	–	–	–	–	–	–	–
CCCCOC(=O)CC(CC(=O)OCCCC)(OC(C)=O)C(=O)OCCCC [A.4, Acetyltributylcitrate]	100	96	92	87	83	79	–	–	–	–	–	–	–	–	–	–	–	–	–	–	–
O=C(CC(O)(CC(=O)OCc1ccccc1)C(=O)OCc1ccccc1)OCc1ccccc1 [A.8, Tribenzylcitrate]	–	–	–	–	–	–	–	–	–	–	–	–	94	91	88	85	83	77	100	96	protease activity in the course of time of storage at 37° C. [21]: 92%; protease activity in the course of time of storage at 37° C. [22]: 86%; protease activity in the course of time of storage at 37° C. [23]: 84%; protease activity in the course of time of storage at 37° C. [24]: 80%; protease activity in the course of time of storage at 37° C. [25]: 73%; protease activity in the course of time of storage at 37° C. [26]: 96%
CCOC(=O)CC(CC(=O)OCC)(OC(C)=O)C(=O)OCC [A.5, Acetyltriethylcitrate]	96	94	90	85	82	78	97	95	91	86	81	77	101	100	94	90	85	81	102	–	protease activity in the course of time of storage at 37° C. (base formulation I, 2.5 wt% compound, T0): 98%; protease activity in the course of time of storage at 37° C. (base formulation III, 2.0 wt% compound, T0): 99%
O=C(O)CC(O)(CC(=O)O)C(=O)O [B.2, citric acid trisodium salt, reference compound]	–	–	–	–	–	–	–	–	–	–	–	–	95	82	75	66	63	60	–	–	protease activity in the course of time of storage at 37° C. (base formulation I, 2.5 wt% compound, 3 d, trisodium salt): 95%; protease activity in the course of time of storage at 37° C. (base formulation I, 2.5 wt% compound, 7 d, trisodium salt): 84%; protease activity in the course of time of storage at 37° C. (base formulation I, 2.5 wt% compound, 14 d, trisodium salt): 68%; protease activity in the course of time of storage at 37° C. (base formulation I, 2.5 wt% compound, 21 d, trisodium salt): 64%; protease activity in the course of time of storage at 37° C. (base formulation I, 2.5 wt% compound, 28 d, trisodium salt): 59%; protease activity in the course of time of storage at 37° C. (base formulation I, 2.5 wt% compound, 35 d, trisodium salt): 55%; protease activity in the course of time of storage at 37° C. (base formulation III, 2.0 wt% compound, 3 d, trisodium salt): 93%; protease activity in the course of time of storage at 37° C. (base formulation III, 2.0 wt% compound, 7 d, trisodium salt): 83%; protease activity in the course of time of storage at 37° C. (base formulation III, 2.0 wt% compound, 14 d, trisodium salt): 73%; protease activity in the course of time of storage at 37° C. (base formulation III, 2.0 wt% compound, 21 d, trisodium salt): 62%; protease activity in the course of time of storage at 37° C. (base formulation III, 2.0 wt% compound, 28 d, trisodium salt): 57%; protease activity in the course of time of storage at 37° C. (base formulation III, 2.0 wt% compound, 35 d, trisodium salt): 50%; protease activity in the course of time of storage at 37° C. [27]: 91%; protease activity in the course of time of storage at 37° C. [28]: 86%; protease activity in the course of time of storage at 37° C. [29]: 70%; protease activity in the course of time of storage at 37° C. [30]: 64%; protease activity in the course of time of storage at 37° C. [31]: 58%; protease activity in the course of time of storage at 37° C. [32]: 52%
CCCCOC(=O)CC(O)(CC(=O)OCCCC)C(=O)OCCCC [A.3, Tributylcitrate]	–	–	–	–	–	–	–	–	–	–	–	–	–	–	–	–	–	–	–	98	protease activity in the course of time of storage at 37° C. [27]: 100%; protease activity in the course of time of storage at 37° C. [28]: 96%; protease activity in the course of time of storage at 37° C. [29]: 91%; protease activity in the course of time of storage at 37° C. [30]: 84%; protease activity in the course of time of storage at 37° C. [31]: 81%; protease activity in the course of time of storage at 37° C. [32]: 77%; protease activity in the course of time of storage at 37° C. (base formulation IV, 2.0 wt% compound, T0): 99%; protease activity in the course of time of storage at 37° C. [21]: 93%; protease activity in the course of time of storage at 37° C. [22]: 88%; protease activity in the course of time of storage at 37° C. [23]: 85%; protease activity in the course of time of storage at 37° C. [24]: 80%; protease activity in the course of time of storage at 37° C. [25]: 74%; protease activity in the course of time of storage at 37° C. [26]: 101%
